Measured values from US11077100B2, “Tetrahydroquinoline derivatives as P2X7 receptor antagonists” (RaQualia Pharma Inc., priority 2017, dated 2021).

Assays:
human P2X7 = human P2X7 (Homo sapiens (Human), UniProt Q99572); experiment: Human P2X7 functional assay (Ca2+ influx, Fluo-4, FDSS); type: cell-based; settings: antagonistic activity with respect to the human P2X7 receptor; BzATP final concentration 80 microM
Summary of the method: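 HEK293 cells stably expressing C-terminally FLAG-tagged human P2X7, loaded with Fluo-4. Compounds were preincubated for 10 min at room temperature, then 80 μM BzATP (final) was added and Ca2+ fluorescence read at 540 nm (480 nm excitation) by FDSS. IC50 values come from 7-point curves, duplicate wells.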

rat P2X7 = rat P2X7 (Rattus norvegicus (Rat), UniProt Q64663); experiment: Rat P2X7 functional assay (Ca2+ influx, Fluo-4, FDSS); type: cell-based; settings: HEK293 cells stably expressing rat P2X7; BzATP final 10 microM; 7-point dose-response; read-out: Antagonistic activities with respect to the rat P2X7 receptor (IC50)
Summary of the method: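 HEK293 cells stably expressing rat P2X7 (5,000/well, plated 24 h before) loaded with Fluo-4; compounds preincubated 10 min at room temperature, then Ca2+ rise after 10 microM BzATP (final) read on FDSS (480/540 nm). IC50 from 7-point curves, duplicate wells.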

Chain of human P2X7 (Q99572 whole entry): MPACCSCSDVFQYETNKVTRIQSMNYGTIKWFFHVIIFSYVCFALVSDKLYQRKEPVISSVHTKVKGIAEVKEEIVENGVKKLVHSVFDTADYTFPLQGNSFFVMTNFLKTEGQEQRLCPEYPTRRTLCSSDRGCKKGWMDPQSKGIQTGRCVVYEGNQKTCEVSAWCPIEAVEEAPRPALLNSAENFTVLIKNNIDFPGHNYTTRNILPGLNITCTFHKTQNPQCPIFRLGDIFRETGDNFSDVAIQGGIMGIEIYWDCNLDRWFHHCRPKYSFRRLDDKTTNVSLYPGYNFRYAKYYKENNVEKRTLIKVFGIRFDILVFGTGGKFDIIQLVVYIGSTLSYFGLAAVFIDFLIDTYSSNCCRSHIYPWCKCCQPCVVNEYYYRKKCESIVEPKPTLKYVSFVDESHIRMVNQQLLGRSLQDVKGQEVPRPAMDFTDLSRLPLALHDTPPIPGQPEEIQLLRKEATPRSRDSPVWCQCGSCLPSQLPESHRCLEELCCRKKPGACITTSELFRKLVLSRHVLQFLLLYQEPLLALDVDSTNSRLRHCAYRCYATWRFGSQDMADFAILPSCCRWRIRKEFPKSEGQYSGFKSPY
Chain of rat P2X7 (Q64663 whole entry): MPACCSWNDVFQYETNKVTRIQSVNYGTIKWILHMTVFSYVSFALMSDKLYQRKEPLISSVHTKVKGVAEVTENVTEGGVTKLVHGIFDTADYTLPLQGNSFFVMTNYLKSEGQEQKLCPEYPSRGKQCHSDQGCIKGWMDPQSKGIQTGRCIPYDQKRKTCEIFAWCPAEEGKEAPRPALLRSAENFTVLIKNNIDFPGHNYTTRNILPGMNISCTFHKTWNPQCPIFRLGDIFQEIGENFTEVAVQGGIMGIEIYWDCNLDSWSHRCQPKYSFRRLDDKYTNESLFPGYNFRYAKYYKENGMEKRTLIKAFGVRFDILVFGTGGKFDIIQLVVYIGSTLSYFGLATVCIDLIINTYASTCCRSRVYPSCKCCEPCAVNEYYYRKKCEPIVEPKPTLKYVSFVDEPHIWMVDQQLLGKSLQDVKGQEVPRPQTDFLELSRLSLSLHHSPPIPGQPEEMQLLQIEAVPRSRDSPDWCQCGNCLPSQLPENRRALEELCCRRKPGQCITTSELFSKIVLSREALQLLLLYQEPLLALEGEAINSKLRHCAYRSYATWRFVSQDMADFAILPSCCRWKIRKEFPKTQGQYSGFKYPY

| SMILES | IC50 (human P2X7) [nM] | IC50 (rat P2X7) [nM] |
| --- | --- | --- |
| O=C(NCc1ncc(Cl)cc1Cl)[C@]1(F)CC[C@@](O)(CO)c2ncccc21 [Example 329, (5S,8S)-N-((3,5-dichloropyridin-2-yl)methyl)-5-fluoro-8-hydroxy-8-(hydroxymethyl)-5,8,7,8-tetrahydroquinoline-5-carboxamide] | 50 to 100 | < 1000 |
| O=C(NCc1ccc(Cl)cc1Cl)C1(F)CCC(O)c2ncccc21 (stereo not shown) [Example 22, N-(2,4-dichlorobenzyl)-5-fluoro-8-hydroxy-5,6,7,8-tetrahydroquinoline-5-carboxamide] | < 50 | < 1000 |
| O=C(NCc1c(Cl)cc(F)cc1CO)[C@]1(F)CC[C@H](O)c2ncccc21 [Example 150, (5S,8S)-N-(2-chloro-4-fluoro-6-(hydroxymethyl)benzyl)-5-fluoro-8-hydroxy-5,6,7,8-tetrahydroquinoline-5-carboxamide] | < 50 | < 1000 |
| O=C(NCc1ccc(F)cc1Cl)[C@]1(F)CC[C@@](O)(CF)c2ncccc21 [Example 286, (5S,8S)-N-(2-chloro-4-fluorobenzyl)-5-fluoro-8-(fluoromethyl)-8-hydroxy-5,6,7,8-tetrahydroquinoline-5-carboxamide] | < 50 | < 1000 |
| CC(CNC(=O)[C@]1(F)CC[C@H](O)c2ncccc21)c1ccc(Cl)cc1 (stereo partly drawn) [Example 234, (5S,8S)-N-(2-(4-chlorophenyl)propyl)-5-fluoro-8-hydroxy-5,6,7,8-tetrahydroquinoline-5-carboxamide] | 301 to 1000 | < 1000 |
| Cc1cc(Cl)cc(Cl)c1CNC(=O)C1CCC(=O)c2ncccc21 (stereo not shown) [Example 1, N-(2,4-dichloro-6-methyl-benzyl)-8-oxo-5,6,7,8-tetrahydroquinoline-5-carboxamide] | < 50 | < 1000 |
| O=C(NCc1cccc(Cl)c1Cl)C1(F)CCC(O)c2ncccc21 (stereo not shown) [Example 21, N-(2,3-dichlorobenzyl)-5-fluoro-8-hydroxy-5,6,7,8-tetrahydroquinoline-5-carboxamide] | < 50 | < 1000 |
| O=C(NCc1ccc(Cl)cc1F)[C@]1(F)CC[C@H](OCCO)c2ncccc21 [Example 346, (5S,8S)-N-(4-chloro-2-fluorobenzyl)-5-fluoro-8-(2-hydroxyethoxy)-5,6,7,8-tetrahydroquinoline-5-carboxamide] | < 50 | < 1000 |
| C[C@@H](NC(=O)[C@]1(F)CC[C@@](O)(CO)c2ncccc21)c1ccc(F)cc1Cl [Example 327, (5S,8S)-N-((R)-1-(2-chloro-4-fluorophenyl)ethyl)-5-fluoro-8-hydroxy-8-(hydroxymethyl)-5,6,7,8-tetrahydroquinoline-5-carboxamide] | < 50 | < 1000 |
| O=C(NCc1ccccc1C(F)(F)F)[C@]1(F)CC[C@H](O)c2ncccc21 [Example 199, (5S,8S)-5-fluoro-8-hydroxy-N-(2-(trifluoromethyl)benzyl)-5,6,7,8-tetrahydroquinoline-5-carboxamide] | 50 to 100 | < 1000 |
| O=C(NCc1ccc(Br)cc1F)[C@]1(F)CC[C@H](O)c2ncccc21 [Example 182, (5S,8S)-N-(4-bromo-2-fluorobenzyl)-5-fluoro-8-hydroxy-5,6,7,8-tetrahydroquinoline-5-carboxamide] | < 50 | < 1000 |
| C[C@@H](NC(=O)[C@]1(F)CC[C@H](O)c2ncccc21)c1ccc(F)cc1Cl [Example 237, (5S,8S)-N-((R)-1-(2-chloro-4-fluorophenyl)ethyl)-5-fluoro-8-hydroxy-5,6,7,8-tetrahydroquinoline-5-carboxamide] | < 50 | < 1000 |
| N[C@]1(CO)CC[C@@](F)(C(=O)NCc2ccc(Cl)cc2Cl)c2cccnc21 (relative stereo) [Example 59, (5S*,8R*)-8-amino-N-(2,4-dichloro-benzyl)-5-fluoro-8-(hydroxymethyl)-5,6,7,8-tetrahydroquinoline-5-carboxamide] | < 50 | < 1000 |
| O=C(NCc1c(F)cc(F)cc1Cl)[C@]1(F)CC[C@@](O)(CO)c2ncccc21 [Example 321, (5S,8S)-N-(2-chloro-4,6-difluorobenzyl)-5-fluoro-8-hydroxy-8-(hydroxymethyl)-5,6,7,8-tetrahydroquinoline-5-carboxamide] | < 50 | < 1000 |
| C=C1CC(C(=O)NCc2c(C)cc(Cl)cc2Cl)c2cccnc21 (stereo not shown) [Example 11, N-(2,4-dichloro-6-methyl-benzyl)-7-methylene-6,7-dihydro-5H-cyclopenta [b]pyridine-5-carboxamide] | < 50 | < 1000 |
| C[C@]1(O)CC[C@@](F)(C(=O)NCc2c(Cl)cc(Cl)cc2CO)c2cccnc21 [Example 261, (5S,8S)-N-(2,4-dichloro-6-(hydroxymethyl)benzyl)-5-fluoro-8-hydroxy-8-methyl-5,6,7,8-tetrahydroquinoline-5-carboxamide] | < 50 | < 1000 |

| SMILES | IC50 (human P2X7) [nM] | IC50 (rat P2X7) [nM] |
| --- | --- | --- |
| C[C@]1(O)CC[C@@](F)(C(=O)NCc2ccc(Cl)cc2F)c2cccnc21 [Example 264, (5S,8S)-N-(4-chloro-2-fluorobenzyl)-5-fluoro-8-hydroxy-8-methyl-5,6,7,8-tetrahydroquinoline-5-carboxamide] | < 50 | < 1000 |
| O=C(NCc1cccc(C(F)(F)F)c1Cl)C1(F)CCC(O)c2ncccc21 (stereo not shown) [Example 19, N-(2-chloro-3-(trifluoro-methyl)benzyl)-5-fluoro-8-hydroxy-5,6,7,8-tetrahydro-quinoline-5-carboxamide] | < 50 | < 1000 |
| COCc1cc(Cl)cc(Cl)c1CNC(=O)C1CCC(O)c2ncccc21 (stereo not shown) [Example 10, N-(2,4-dichloro-6-(methoxy-methyl)benzyl)-8-hydroxy-5,6,7,8-tetrahydro-quinoline-5-carboxamide] | < 50 | < 1000 |
| O=C(NCc1c(Cl)cc(Cl)cc1CO)[C@]1(F)CC[C@H](OCCO)c2ncccc21 [Example 343, (5S,8S)-N-(2,4-dichloro-6-(hydroxymethyl)benzyl)-5-fluoro-8-(2-hydroxyethoxy)-5,6,7,8-tetrahydroquinoline-5-carboxamide] | < 50 | < 1000 |
| O=C(NCc1ccc(F)cc1C(F)(F)F)[C@@H]1CC[C@H](O)c2ncccc21 [Example 76, (5R,8S)-N-(4-fluoro-2-(tri-fluromethyl)benzyl)-8-hydroxy-5,6,7,8-tetra-hydroquinoline-5-carboxamide] | 50 to 100 | < 1000 |
| CO[C@H]1CC[C@@](F)(C(=O)NCc2ccc(Cl)cc2F)c2cccnc21 [Example 340, (5S,8S)-N-(4-chloro-2-fluorobenzyl)-5-fluoro-8-methoxy-5,6,7,8-tetrahydroquinoline-5-carboxamide] | < 50 | < 1000 |
| O=C(NCc1c(F)cc(F)cc1Cl)[C@]1(F)CC[C@H](O)c2ncccc21 [Example 176, (5S,8S)-N-(2-chloro-4,6-difluorobenzyl)-5-fluoro-8-hydroxy-5,6,7,8-tetrahydroquinoline-5-carboxamide] | < 50 | < 1000 |
| O=C(NCc1c(F)cc(Cl)cc1Cl)[C@]1(F)CC[C@@H](O)c2ncccc21 [Example 117, (5S,8R)-N-(2,4-dichloro-6-fluorobenzyl)-5-fluoro-8-hydroxy-5,6,7,8-tetrahydroquinoline-5-carboxamide] | < 50 | < 1000 |
| CNCC1(O)CCC(F)(C(=O)NCc2cccc(C(F)(F)F)c2Cl)c2cccnc21 (stereo not shown) [Example 49, N-(2-chloro-3-(trifluorometh-yl)benzyl)-5-fluoro-8-hydroxy-8-((methylamino)meth-yl)-5,6,7,8-tetrahydroquinoline-5-carboxamide] | < 50 | < 1000 |
| O=C(NCc1ccc(Cl)cc1Cl)[C@]1(F)CCC(S(=O)(=O)CCO)c2ncccc21 (stereo partly drawn) [Example 351, (5S)-N-(2,4-clichlorebenzyl)-5-fluoro-8-((2-hydroxyethyl)sulfenyl)-5,6,7,8-letrahydroquineline-5-carboxamide] | < 50 | < 1000 |
| O=C(NCc1cccc(F)c1F)[C@]1(F)CC[C@H](O)c2ncccc21 [Example 208, (5S,8S)-N-(2,3-difluorobenzyl)-5-fluoro-8-hydroxy-5,6,7,8-tetrahydroquinoline-5-carboxamide] | 101 to 300 | < 1000 |
| CNCC1(O)CCC(C(=O)NCc2c(C)cc(Cl)cc2Cl)c2cccnc21 (stereo not shown) [Example 44, N-(2,4-dichloro-6-methylbenzyl)-8-hydroxy-8-((methyl-amino)methyl)-5,6,7,8-tetrahydro-quinoline-5-carboxamide] | < 50 | < 1000 |
| N#CC[C@]1(O)CC[C@@](F)(C(=O)NCc2ccc(Cl)cc2Cl)c2cccnc21 [Example 280, (5S,8R)-8-(cyanomethyl)-N-(2,4-dichlorobenzyl)-5-fluoro-8-hydroxy-5,6,7,8-tetrahydroquinoline-5-carboxamide] | < 50 | < 1000 |
| O=C(NCc1ccc(F)cc1Cl)[C@@H]1CC[C@H](O)c2ncccc21 [Example 68, (5R,8S)-N-(2-chloro-4-fluorobenzyl)-8-hydroxy-5,6,7,8-tetrahydroquinoline-5-carboxamide] | < 50 | < 1000 |
| O=C(NCc1c(Cl)cccc1Cl)[C@]1(F)CC[C@H](O)c2ncccc21 [Example 139, (5S,8S)-N-(2,6-dichlorobenzyl)-5-fluoro-8-hydroxy-5,6,7,8-tetrahydroquinoline-5-carboxamide] | < 50 | < 1000 |
| O=C(NCc1c(Cl)cc(Cl)cc1C(F)F)[C@]1(F)CC[C@@H](O)c2ncccc21 [Example 115] | < 50 | < 1000 |
